One data set has as its system SCI rats. Description: BBB sub-score (toe clearance, paw position, trunk stability, tail position) in SCI rats. The format is in vivo, rat. The method, then: Animals were prepared according to the methods described above in Example 3.
Lyophilized Compound 8 and Compound 4 were separately dissolved in saline and injected s.c. at a volume of 500 μl to animal once daily from day 1-day 49 post spinal cord injury.
The target dose concentration was 0.8 mg/ml. After reconstitutions, the solutions were aliquoted and kept at −20° C. until dosing.
12-13 rats were used in each of the following three groups: • 1) Control group: SCI+saline alone • 2) Testing group: SCI+Compound 4 in saline • 3) Testing group: SCI+Compound 8 in saline.
Spinal cord injury (SCI) was introduced to the animals and post-operative care was provided to the animals according to the methods described in Example 3.
The BBB sub-scores quantify the recovery of toe clearance, paw position, trunk stability and tail use independent of forelimb-hindlimb coordination. BBB sub-scores were calculated using the observations recorded in the BBB records sheets. During BBB testing, the predominant position of the hind paws (parallel vs rotated), toe clearance, trunk stability and tail position (up, down, middle) were evaluated for animals reaching a BBB score of 10 or higher. Animals scoring less than 10 in BBB scale were considered to have BBB sub-score of “0”.
As described above in Example 3, the upper points on the BBB scale (14-21) quantify fine motor movements associated with hind limb locomotor including toe clearance, predominant paw position, trunk stability, and tail position. These fine motor movements are only considered if animals display consistent coordination. A BBB sub-score was applied to quantify these improvements independent of coordination.
FIG. 8B depicts violin plots presenting distributions of the weekly average BBB sub-scores in the saline alone, Compound 4, and Compound 8 treatment cohorts of SCI rats. Each data point represents a weekly average BBB sub-score in the saline alone (control), Compound 4, and Compound 8 treatment cohorts as annotated on the X-axis. The numbers adjacent to the data points indicate the numbers of days post-SCI at which individual and treatment cohort weekly average BBB sub-scores were calculated. Statistical comparison of the treatment effects was performed using Friedman's test (repeated measures ANOVA for nonparametric values) with Dunn's correction for multiple comparisons and p-value of less than 0.05 defined as the criterion of statistical significance.

Data set [1] is described as follows: Body weights of SCI rats during treatment. The format is in vivo, rat. To be noted: SCI rats vs saline control, measured until the 13th week. As to the method: Adult, female Lewis rats (~160 g on arrival) from Envigo were used as the subjects receiving the treatment in the study. The rats were assigned unique identification numbers (PGI ID and tail marks) and housed in ventilated cages. All rats were examined, handled, and weighed prior to initiation of the study to assure adequate health and suitability. During the course of the study, 12/12 light/dark cycles were maintained. The room temperature was maintained between […] and 23° C. with a relative humidity maintained around 50%. Chow and water were provided adlibitum for the duration of the study. The rats were randomly assigned across treatment groups. Body weights were taken twice a week during the study.
Lyophilized Compound 8 was dissolved in saline and injected s.c. at a volume of 500 μl to animal once daily from day 1-day 49 post spinal cord injury.
The dose concentration was 0.8 mg/ml, corresponding to 400 μg/rat. After reconstitutions, the solution was aliquoted and kept at −20° C. until dosing.
Body weights were taken twice a week for the first 7 weeks after injury and then weekly until endpoint. Health and survival of the animals was evaluated during bladder expressions, body weight and behavioral test, any health concerns were reported and discussed with a veterinarian if needed.

This is an account of results in patent publication US20260286322A1, “PROTEIN TYROSINE P[…] DOMAIN PEPTIDE DIMER FOR NERVOUS SYSTEM REPAIR” (NervGen Pharma Corp., priority 2023, published 2026).

Take “TAT-Cys-rodent PTPRS wedge domain homodimer [Compound 8]”: in the data set on SCI rats (FIG. 8A), the “sustained trend of continued functional improvement in BBB sub-score” value was “apparent”. The “effect on weekly average BBB sub-score vs saline alone” value in the data set with SCI rats (Friedman's test, Dunn's correction, p=0.0008 Compound 8, p>0.9999 Compound 4) was “statistically significant effect”. Besides, the “effect on weekly average BBB sub-score vs Compound 4” value in the data set on SCI rats (Friedman's test, Dunn's correction, p=0.0201) is given as “statistically significant effect”. Moreover, the “functional improvement (BBB sub-score achievers) after discontinuation of administration” value in the data set on SCI rats (after day 49) is listed as “continued functional improvement”. Also, in the data set with SCI rats (day post-SCI, 0.8 mg/ml, 500 μl s.c. once daily day 1-49), the “onset of functional improvement in BBB sub-score” value was 21 days. In addition, the “percentage of rats achieving BBB sub-score of 1 or better, compared with Compound 4 or saline alone groups” value with SCI rats (each time point post-SCI, e.g. day 28, 42, 63, 70, 77, 84) is given as “higher”. The “effect on body weights” value in data set [1] is “no adverse effects on body weights”.
